The text below walks through data of US20260234165A1, “MACROCYCLIC COMPOUNDS, PREPARATION METHOD THEREFOR, AND USE THEREOF” (GENFLEET THERAPEUTICS (SHANGHAI) INC., priority 2004, published 2026).

In general, IC50 refers to the concentration that gives 50% inhibition.

Where two headings read alike, the source gives them in different places.

What all share (assay type): cell-based, human
Assay [1] deals with p-ERK in NCI-H441 cells (KRAS G12V mutation). The assay can be described thus: Cell p-ERK assay (HTRF) in NCI-H441 cells. The following applies: NCI-H441 cells, 3 h compound incubation, HTRF p-ERK T202/Y204, read-out: H441 p-ERK IC50. The procedure, abridged:
(§1)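 Seed 10000 AsPC-1 or 20000 NCI-H441 cells/well, overnight 37 °C/5% CO2. Cpd 3.16-fold series, 0.1% DMSO final, 3 h. Lyse 30 min, HTRF p-ERK (T202/Y204) Ab 4 h. IC50: 4-parameter fit of IR% normalised to DMSO and blank.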
In general terms: TR-FRET usually uses a lanthanide donor and a delayed reading to cut background.

Assay [2] deals with p-ERK in AsPC-1 cells (KRAS G12D mutation). The assay can be described thus: Cell p-ERK assay (HTRF) in AsPC-1 cells. The following applies: AsPC-1 cells, 3 h compound incubation, HTRF p-ERK T202/Y204, read-out: AsPC-1 p-ERK IC50. The method in brief: as §1
The subject of assay [3] is AsPC-1 cells (KRAS G12D mutation). In words: 3D cell proliferation assay (CellTiter Glo-3D), AsPC-1. The note with it: medium with 2% FBS, read-out: AsPC-1 AP IC50. The method in brief:
(§2)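 800 cells/well (NCI-H441, […]; AsPC-1, KRAS G12D), low-serum RPMI-1640 (2% FBS), overnight attach; 3.16-fold serial dilutions added, 0.1% DMSO; 5 d, 37 °C; CellTiter-Glo 3D RLU; IC50, 4-parameter fit.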
(Cellular ATP, detected with luciferase, serves as a proxy for viable cell number.)

The test system of the next assay is NCI-H441 cells. In words: 3D cell proliferation assay (CellTiter Glo-3D), NCI-H441. The following applies: medium with 2% FBS, read-out: H441 AP IC50. The method in brief:
as §2

[4] abbreviates: 3D cell proliferation (CellTiter Glo-3D).
The mark [5] stands for this setting: Homo sapiens, ASPC1, 3D cell proliferation (CellTiter Glo-3D).
Setting [6] is: Homo sapiens, NCI-H441, 3D cell proliferation (CellTiter Glo-3D).

Turning to “(1S,2R,3S)—N-((6^3S,4S,Z)—(Ra)-1^2-(5-(2-(4-oxa-7-azaspiro[2,5]octan-7-yl)ethoxy)-2-((S)-1-methoxyethyl)pyridin-3-yl)-11-ethyl-10,10-dimethyl-5,7-dioxo-6^1,6^2,6^3,6^4,6^5,6^6-hexahydro-1^1H-8-oxa-2(4,2)-thiazola-1(5,3)-indola-6(1,3)- pyridazinacycloundecaphane-4-yl)-2-methyl-3-(pyrimidin-4-yl)cyclopropane-1-carboxamide [Compound Z661-1]”, the IC50 was determined as 37.7 nM in assay [1], 93 nM in assay [2], 97.2 nM in assay [3] (setting [4]) and 42.6 nM in the assay on NCI-H441 cells (setting [4]).
`CCn1c(-c2cc(OCC34CCCN3CCC4)cnc2[C@H](C)OC)c2c3cc(ccc31)-c1csc(n1)C[C@H](NC(=O)[C@H]1[C@H](C)[C@@H]1C)C(=O)N1CCC[C@H](N1)C(=O)OCC1(CC1)C2` (single isomer, unassigned) [Compound Z339]: the half-maximal inhibitory concentration (IC50) is 5.48 nM in assay [1] (Homo sapiens, NCI-H441, 3 h); 10.8 nM in assay [2] (Homo sapiens, ASPC1, 3 h); 18.3 nM in assay [3] (setting [5]); 7.33 nM with NCI-H441 cells (setting [6]).
For `CCn1c(-c2cc(N3CCN4CCOC[C@@H]4C3)cnc2[C@H](C)OC)c2c3cc(ccc31)-c1csc(n1)C[C@H](NC(=O)[C@H]1[C@H](C)[C@@H]1C)C(=O)N1CCC[C@H](N1)C(=O)OCC(C)(C)C2` [Compound Z72], the IC50 in assay [1] stood at 0.31 nM; in assay [2] it was 0.31 nM; in assay [3] (setting [4]), 0.88 nM; in the assay with NCI-H441 cells (setting [4]) it was 0.51 nM.
In the case of `CCn1c(-c2cc(OCC(C)(C)N3CCS(=O)(=O)CC3)cnc2[C@H](C)OC)c2c3cc(ccc31)-c1csc(n1)C[C@H](NC(=O)[C@H]1[C@H](C)[C@@H]1C)C(=O)N1CCC[C@H](N1)C(=O)OCC(C)(C)C2` (atropisomer, axis not shown; (Ra)) [Compound Z667, (1r,2R,3S)—N-((6^1S,4S,Z)—(Ra)-1^2-(5-(2-(1,1-dioxidothiomorpholino)-2-methylpropoxy)-2-((S)-1-methoxyethyl)pyridin-3-yl)-1^1-ethyl-10,10-dimethyl-5,7-dioxo-6^1,6^2,6^3,6^4,6^5,6^6-hexahydro-1^1H-8-oxa-2(4,2)-thiazola-1(5,3)-indola-6(1,3)-pyridazinacycloundecaphane-4-yl)-2,3-dimethylcyclopropane-1-carboxamide], the IC50 in assay [1] was found to be 0.38 nM; in assay [2], 0.63 nM; in assay [3] (setting [4]), 1.63 nM; in the assay with NCI-H441 cells (setting [4]), 0.71 nM.
With `CO[C@@H](C)c1ncc(C#CCN2CCC2)cc1-c1c2c3cc(ccc3n1CC(F)(F)F)-c1csc(n1)C[C@H](NC(=O)[C@H]1[C@H](C)[C@@H]1C)C(=O)N1CCC[C@H](N1)C(=O)OCC(C)(C)C2` (atropisomer, axis not shown; (Ra)) [Compound Z362-2, (1r,2R,3S)—N-((6^3S,4S,Z)-1′-(5-(3-(azetidin-1-yl)prop-1-yn-1-yl)-(Ra)-2-((S)-1-methoxyethyl)pyridin-3-yl)-10,10-dimethyl-5,7-dioxo-1^1-(2,2,2-trifluoroethyl)-6^1,6^2,6^3,6^4,6^5,6^6-hexahydro-1^1H-8-oxa-2(4,2)-thiazola-1(5,3)-indola-6(1,3)-pyridazinacycloundecaphane-4-yl)-2,3-dimethylcyclopropane-1-carboxamide], the IC50 in assay [1] (Homo sapiens, NCI-H441, 3 h) came out at 0.71 nM; in assay [2] (Homo sapiens, ASPC1, 3 h), 0.48 nM; in assay [3] (setting [5]) it was 0.82 nM; in the assay with NCI-H441 cells (setting [6]), 0.67 nM.
Take `[2H]C([2H])([2H])O[C@@H](C)c1ncc(N2CCN(C)CC2)cc1-c1c2c3cc(ccc3n1CC)-c1csc(n1)C[C@H](NC(=O)C(C)(C)F)C(=O)N1CCC[C@H](N1)C(=O)OCC(C)(C)C2` (atropisomer, axis not shown; (Ra)) [Compound Z64, N-((1^2R,6^3S,4S,Z)-1^1-ethyl-(Ra)-1^2-(2-((S)-1-(methoxy-d3)ethyl)-5-(4-methylpiperazin-1-yl)pyridin-3-yl)-10,10-dimethyl-5,7-dioxo-6^1,6^2,6^3,6^4,6^5,6^6-hexahydro-1^1H-8-oxa-2(4,2)-thiazola-1(5,3)-indola-6(1,3)-pyridazinacycloundecaphane-4-yl)-2-fluoro-2-methylpropanamide]: the IC50 in assay [1] (Homo sapiens, NCI-H441, 3 h) turned out to be 3.32 nM; in assay [2] (Homo sapiens, ASPC1, 3 h), 6.24 nM; in assay [3] (setting [5]), 12.8 nM; in the assay on NCI-H441 cells (setting [6]), 6.27 nM.
In the case of `CCn1c(-c2cc(N3CCN(C)CC3)cnc2[C@H](C)OC)c2c3cc(ccc31)-c1csc(n1)C[C@H](Nc1nnc3ccccn13)C(=O)N1CCC[C@H](N1)C(=O)OCC(C)(C)C2` (atropisomer, axis not shown; (Ra)) [Compound Z460, (6^3S,4S,Z)-4-([1,2,4]triazolo[4,3-a]pyridin-3-ylamino)-1^1-ethyl-(Ra)-1^2-(2-((S)-1-methoxyethyl)-5-(4-methylpiperazin-1-yl)pyridin-3-yl)-10-O-dimethyl-6^1,6^2,6^3,6^4,6^5,6^6-hexahydro-1^1H-8-oxa-2(4,2)-thiazola-1(5,3)-indola-6(1,3)-pyridazinacycloundecaphane-5,7-dione], the IC50 in assay [1] (Homo sapiens, NCI-H441, 3 h) came to 6.3 nM; in assay [2] (Homo sapiens, ASPC1, 3 h), 26.2 nM; in assay [3] (setting [5]) it was 73.4 nM; in the assay on NCI-H441 cells (setting [6]), 14.3 nM.
In the case of `CO[C@@H](C)c1ncc(OCCN2CCS(=O)(=O)CC2)cc1-c1c2c3cc(ccc3n1CC(F)(F)F)-c1csc(n1)C[C@H](NC(=O)[C@H]1C[C@@H]1C)C(=O)N1CCC[C@H](N1)C(=O)OCC(C)(C)C2` (atropisomer, axis not shown; (Ra)) [Compound Z677, (1S,2S)—N-((6^3S,4S,Z)—(Ra)-1^2-(5-(2-(1,1-dioxidothiomorpholino)ethoxy)-2-((S)-1-methoxyethyl)pyridin-3-yl)-10,10-dimethyl-5,7-dioxo-1^1-(2,2,2-trifluoroethyl)-6^1,6^2,6^3,6^4,6^5,6^6-hexahydro-1^1H-8-oxa-2(4,2)-thiazola-1(5,3)-indola-6(1,3)-pyridazinacycloundecaphane-4-yl)-2-methylcyclopropane-1-carboxamide], the IC50 stood at 0.29 nM in assay [1] (Homo sapiens, NCI-H441, 3 h); 0.35 nM in assay [2] (Homo sapiens, ASPC1, 3 h); 0.53 nM in assay [3] (setting [5]); 0.2 nM in the assay with NCI-H441 cells (setting [6]).
As for `CCn1c(-c2cc(N3CCN(C)CC3)cnc2[C@H](C)OC)c2c3cc(ccc31)-c1csc(n1)C[C@H](Nc1nnc3cc(OC)ccn13)C(=O)N1CCC[C@H](N1)C(=O)OCC(C)(C)C2` (atropisomer, axis not shown; (Ra)) [Compound Z777, N-((6^3S,4S,Z)-1^1-ethyl-(Ra)-1^2(2-((S)-1-methoxyethyl)-5-(4-methylpiperazin-1-yl)pyridin-3-yl)-10,10-dimethyl-5,7-dioxo-6^1,6^2,6^3,6^4,6^5,6^6-hexahydro-1^1H-8-oxa-2(4,2)-thiazola-1(5,3)-indola-6(1,3)-pyridazinacycloundecaphane-4-yl)-4-(7-methoxy-[1,2,4]triazolo[4,3-a]pyridin-3-yl)amine], the IC50 in assay [1] turned out to be 22.2 nM; in assay [2], 61.9 nM; in assay [3] (setting [4]) it was 87.9 nM; in the assay with NCI-H441 cells (setting [4]), 18.2 nM.
For the compound `CCn1c(-c2cc(C#CC3(N4CCCOCC4)CC3)cnc2[C@H](C)OC)c2c3cc(ccc31)-c1csc(n1)C[C@H](NC(=O)[C@H]1[C@H](C)[C@@H]1C)C(=O)N1CCC[C@H](N1)C(=O)OCC(C)(C)C2` (atropisomer, axis not shown; (Ra)) [Compound Z645, (1r,2R,3S)—N-((4S,Z)—(Ra)-1-(5-((1-(1,4-oxazepan-4-yl)cyclopropyl)ethynyl)-2-((S)-1-methoxyethyl)pyridin-3-yl)-1^1-ethyl-10,10-dimethyl-5,7-dioxo-6^1,6^2,6^3,6^4,6^5,6^6-hexahydro-1^1H-8-oxa-2(4,2)-thiazola-1(5,3)-indola-6(1,3)-pyridazinacycloundecaphane-4-yl)-2,3-dimethylcyclopropane-1-carboxamide], the IC50 in assay [1] came to 0.48 nM; in assay [2] it was 0.15 nM; in assay [3] (setting [4]), 0.81 nM; in the assay with NCI-H441 cells (setting [4]) it was 0.5 nM.
Turning to `CCn1c(-c2cc(C#CCN3CCCOCC3)cnc2[C@H](C)OC)c2c3cc(ccc31)-c1csc(n1)C[C@H](NC(=O)C[C@@H]1CC1(F)F)C(=O)N1CCC[C@H](N1)C(=O)OCC(C)(C)C2` (atropisomer, axis not shown; (Ra)) [Compound Z932-1, N-((6^3S,4S,Z)—(Ra)-1′-(5-(3-(1,4-oxazepan-4-yl)prop-1-yn-1-yl)-2-((S)-1-methoxyethyl)pyridin-3-yl)-1^1-ethyl-10,10-dimethyl-5,7-dioxo-6^1,6^2,6^3,6^4,6^5,6^6-hexahydro-1^1H-8-oxa-2(4,2)-thiazola-1(5,3)-indola-6(1,3)-pyridazinacycloundecaphane-4-yl)-2-((R)-2,2-difluorocyclopropyl)acetamide], the IC50 was 1.02 nM in assay [1] (Homo sapiens, NCI-H441, 3 h); 2.28 nM in assay [2] (Homo sapiens, ASPC1, 3 h); 3.82 nM in assay [3] (setting [5]); 2.25 nM in the assay on NCI-H441 cells (setting [6]).
